# Source: patent US20160143995A1, “Method of Treating Intracellular Infection” (priority 2013, published 2016)
# Read-outs that look alike come from different tables or passages of the source.
# Key:
# [1] = MTS staining for PBMC viability to measure cytotoxicity; type: cell-based, human; details: human, PHA-stimulated pooled PBMCs, HIV-infected, infected PBMCs, six days, MTS, unit printed only with high-test concentration, read-out: TC50 (50% cytotoxicity)
# Procedure: (§1) Pooling (mixing) of mononuclear cells from more than one donor was used to minimize the variability observed between individual donors, which results from quantitative and qualitative differences in HIV infection and overall response to the PHA and IL-2 of primary lymphocyte populations. Each plate contains virus/cell control wells (cells plus virus) and experimental wells (drug plus cells plus virus). In this in vitro assay, PBMC viability remains high throughout the duration of the incubation period. Therefore, infected wells are used in the assessment of both antiviral activity and cytotoxicity. […] The PBMC cultures were maintained for six days following infection at 37° C., 5% CO2. After this period, cell-free supernatant samples were collected for analysis of reverse transcriptase activity. Following removal of supernatant samples, compound cytotoxicity was measured by addition of MTS to the plates for determination of cell viability. Wells were also examined microscopically and any abnormalities were noted. At assay termination, the assay plates were stained with the soluble tetrazolium-based dye MTS (CellTiter®96 Reagent, Promega) to determine cell viability and quantify compound toxicity. MTS is metabolized by the mitochondrial enzymes of metabolically active cells to yield a soluble formazan product, allowing the rapid quantitative analysis of cell viability and compound cytotoxicity. […] At termination of the assay, 10-25 μL of MTS reagent was added per well (10% final concentration based on volume) and the microtiter plates were then incubated for 4-6 hrs at 37° C., 5% CO2 to assess cell viability. Adhesive plate sealers were used in place of the lids, the sealed plate was inverted several times to mix the soluble formazan product and the plate was read spectrophotometrically at 490/650 nm with a Molecular Devices Vmax or SpectraMax Plus plate reader. […]
# [2] = test system: HIV-1JR-CSF
# [3] = test system: HIV-1JR-CSF; test: Anti HIV efficacy evaluation in fresh human PBMCs (reverse transcriptase activity); details: for IC50: Human immunodeficiency virus 1, PBMC, in Homo sapiens, 144 h, read-out: IC50 (50% inhibition of virus replication)
# [4] = test system: human PBMCs; test: MTS staining for PBMC viability to measure cytotoxicity; type: cell-based; details: fixed concentration (10 ng/mL) of TNF-α versus birinapant alone; within expected biological variability
# Procedure: as §1
# [5] = test system: HBV; test: Treatment of HBV infected mice (serum HBV DNA); type: in vivo, hepatitis B virus
# [6] = test system: HIV-infected (GFP+) cultured CD4+ lymphocytes; test: FACS of living (Active-Caspase 3 negative) HIV NL4.3 infected CD4+ lymphocytes; type: cell-based, human; details: single dose of 10 uM, within 24 hours
# [7] = test system: Mycobacterium tuberculosis (strain H37Rv); test: Mycobacterium tuberculosis infected mice, lung bacterial burden; type: in vivo
# [8] = test system: primary human hepatocytes infected with HBV; test: Viability (CellTiter-Glo) of primary human hepatocytes infected in vitro with HBV; type: cell-based; details: forty eight hours after treatment, in the absence of TNF-α
# Excerpt: Primary human hepatocytes were infected in vitro with HBV using an adenoviral delivery system as previously described (Chin R, Earnest-Silveira L, Koeberlein B, Franz S, Zentgraf H, Bowden S, Bock C-T, Torresi J. Modulation of MAPK pathways and cell cycle byreplicating hepatitis B virus: factors contributing tohepatocarcinogenesis. J Hepatology 2007;47:325-37). The delivery system included a green fluorescent protein marker so that the proportion of infected cells could be quantified. Using this system approximately 100% of hepatocytes were infected with HBV. Cells were rested for 2 days after infection and then they were treated with the indicated agents. Forty eight hours after treatment cell viability was assessed using CellTiter-Glo® (Promega, Madison Wis. USA) according to the manufacturer's protocol. This experiment was performed in triplicate and repeated 2 times using 2 independent donors. The highest CellTiter-Glo result from one of the triplicate untreated samples was used to set the 100% viability mark.
# [9] = Toxicity of treatment in HBV-infected mice; type: in vivo
# Procedure: C57BL/6 mice were infected with HBV and 6 days after infection were treated with weekly doses of birinapnat (30 mg/kg administered intraperitoneally) or vehicle control (DMSO) for a total of 3 weeks (3 doses).
molecule,measurement,setting,value
"Cc1cn([C@H]2C[C@H](N=[N+]=[N-])[C@@H](CO)O2)c(=O)[nH]c1=O [AZT, Zidovudine]",CC50 at 6 days,"[1]; high-test concentration 1,000 nM",> 1 µM
same,Antiviral Index (TC50/IC50),[2],>584
same,IC50,[3],1.71 nM
"CC[C@H](NC(=O)[C@H](C)NC)C(=O)N1C[C@@H](O)C[C@H]1Cc1c(-c2[nH]c3cc(F)ccc3c2C[C@@H]2C[C@H](O)CN2C(=O)[C@H](CC)NC(=O)[C@H](C)NC)[nH]c2cc(F)ccc12 [Birinapant, birinapant]",CC50 at 6 days,[1]; high-test concentration 10 μM,6.47 µM
same,increase in cytotoxicity in the presence of TNF-α,[4],1.6 fold
same,reduction of HBV viral load compared to vehicle control,"[5]; C57BL/6 mice, 30 mg/kg intraperitoneally weekly, after three doses",2 logs
same,HBV DNA in serum,"[5]; C57BL/6 mice, 39 days after the first dose, all treated mice",no detectable HBV DNA
same,efficacy against HBV when TNF-α is antagonized,[5]; HBV infected mice injected intraperitoneally with TNF-α antagonizing antibodies,abrogates the efficacy
same,HIV infected cells that die,[6],55%
same,reduction in bacterial burden versus DMSO control,"[7]; mice, intraperitoneal, 30 μg/g weekly x3, started 4 weeks after infection, p=0.012",0.33 Log10 CFU/lung
same,macroscopic appearance of the lungs,[7]; upon dissection after three weekly doses,"pink, uniform and healthier in appearance"
same,death of primary human hepatocytes infected with HBV,[8],not effective
same,toxicity related to treatment,[9],No toxicity
same,IC50,[3],250 nM
same,increase in antiviral potency in the presence of TNF-α,[3]; fixed concentration (10 ng/mL) of TNF-α versus birinapant alone,6 fold
TNF-α,reduction in HIV replication,"[3]; TNF-α alone, 10 ng/mL",35%
TRAIL: TNF-related apoptosis inducing ligand,death of primary human hepatocytes infected with HBV,[8],virtually no efficacy
